PMC9555560, “Fast relaxing red and near-IR switchable azobenzenes with chalcogen and halogen substituents: periodic trends, tuneable thermal half-lives and chalcogen bonding” (Chemical Science, 2022)

Columns and labels:
[1] = E → Z photo-isomerisation with LEDs / photo-stationary state (PSS) determination; format: physicochemical; conditions: under irradiation
Protocol: The E → Z photo-isomerisation and half-life for the Z → E thermal isomerisation was evaluated for all derivatives (Fig. 7 and Table 1, see ESI ^† for original data). To our surprise, the half-lives for (Z)-X2,m-Y2 derivatives were in the order of hours to days for X = F and Cl: the effect of the meta group was not as drastic as anticipated. We typically observed a ∼4 fold decrease in half-life by substituting H with OMe, and a further 3-fold drop from OMe to NMe2 for X = F, Cl and SEt. The nature of the ortho-substituent appeared to be the main influence on τ1/2 (F > Cl ≫ SEt). However, these predictable trends observed for the meta-substitution allow for precise tuning of thermal half-lives. The photo-stationary states (PSSs) of these derivatives ranged from 48–77% Z isomer (Table 1).
Remarkably, it was possible to photo-switch the tetra-iodo derivative I4-ester using near-IR light (730 nm) (Fig. 8C). […] Photo-isomerisation was not detected for the ortho-telluro derivatives. This is consistent with findings by Haberhauer and co-workers, who propose that the strong chalcogen bonds in the E isomer of a PhTe-substituted azobenzene lead to dramatic energy differences between the E and Z isomers, which suppresses photoswitching.[43] The photo-stationary states of the halogen X4 derivatives range from 50–84% (Table 1) and could also be determined for the slower relaxing chalcogen derivatives (PSS 46–95%, see Fig. S308–S323 ^† for original data).
All UV-vis spectra were determined in DMSO solution. Extinction coefficients were determined by recording a UV-vis spectra for the E isomer at 10, 20, 30, 40 µM in DMSO respectively. The absorbance at the maximum of the π - π* transition of the E‐isomers was plotted against concentration (Beer-Lambert plot) to determine the molar extinction coefficient ε. For each slow relaxing compound, the E isomer sample at 40 µM was irradiated with the appropriate wavelength of light to generate the photo-stationary state, and another spectrum was run. This spectrum was normalised to units of ε and overlaid with the dark (100% E isomer) spectrum. […]

[2] = UV-vis spectra of the E isomers (n → π* absorption maximum); format: physicochemical; conditions: E isomer, DMSO
Text: The UV-vis spectra of the (E)-X4 derivatives and (E)-X2,m-Y2 are shown in Fig. 3 (analogous spectra for the Z isomers, and deconvoluted spectra are available in the ESI ^†). […] The n → π* transition maximum, λmax, typically followed the order meta-H > –NMe2 > –OMe and ortho-S > Cl > F. It is clear from these experiments that the four ortho X substituents in the X4 derivatives are essential for achieving the deeply red-shifted tails which allows for red/near-IR triggered photo-isomerisation.
All UV-vis spectra were determined in DMSO solution. Extinction coefficients were determined by recording a UV-vis spectra for the E isomer at 10, 20, 30, 40 µM in DMSO respectively. The absorbance at the maximum of the π - π* transition of the E‐isomers was plotted against concentration (Beer-Lambert plot) to determine the molar extinction coefficient ε. For each slow relaxing compound, the E isomer sample at 40 µM was irradiated with the appropriate wavelength of light to generate the photo-stationary state, and another spectrum was run. This spectrum was normalised to units of ε and overlaid with the dark (100% E isomer) spectrum.

Stability to light [1] | λ max of n → π* transition [2] [nm] | SMILES
unstable to light | 426.6 | COc1cc(/N=N/c2cc(OC)c(CNC(=O)OC(C)(C)C)cc2OC)c(OC)cc1CNC(=O)OC(C)(C)C [OMe2,m-OMe2]
unstable to light | 512.9 | CCSc1cc(CNC(=O)OC(C)(C)C)c(OC)c(SCC)c1/N=N/c1c(SCC)cc(CNC(=O)OC(C)(C)C)c(OC)c1SCC [(SEt)4,m-OMe2-NHBoc]
